pIC50: −log10 of the molar value. Structures can show the parent of a compound that is named as a salt.
Molecular target: MK-2 (Homo sapiens, UniProt P49137)
Experiment: Determination of MK-2 IC50 (anion exchange resin capture assay, HSP-peptide phosphorylation)
Type: biochemical
Settings: MK-2 Avg. IC50
Method: The phosphorylation of HSP-peptide ([sequence]) by MAPKAPK2 was measured using an anion exchange resin capture assay method. […] The reaction was terminated and [γ^33P]ATP was removed from solution by the addition of 150 μl of AG 1×8 ion exchange resin in 900 mM sodium formate pH 3.0. A 50 μl aliquot of head volume was removed from the quenched reaction mixture and added to a 96-well plate, 150 μl of Microscint-40 (Packard) was added and the amount of phosphorylated-peptide was determined. Allow the Microscint to sit in the plates for 60 minutes prior to counting.
Compounds are evaluated as potential inhibitors of the MK2 kinase by measuring their effects on MK2 phosphorylation of the peptide substrate. Compounds may be screened initially at two concentrations prior to determination of IC50 values. Screening results are expressed as percent inhibition at the concentrations of compound tested. For IC50 value determinations, compounds are tested at six concentrations in ten-fold serial dilutions with each concentration tested in triplicate. Results are expressed as IC50 values in micromolar. The assay is performed at a final concentration of 2% DMSO.
Compounds are evaluated as potential inhibitors of the MK-2 kinase by measuring their effects on MK-2 phosphorylation of the peptide substrate. Compounds may be screened initially at two concentrations prior to determination of IC50 values. Screening results are expressed as percent inhibition at the concentrations of compound tested. For IC50 value determinations, compounds are tested at six concentrations in ten-fold serial dilutions with each concentration tested in triplicate. Results are expressed as IC50 values in micromolar. The assay is performed at a final concentration of 2% DMSO.

Chain of MK-2 (P49137 whole entry, species assumed): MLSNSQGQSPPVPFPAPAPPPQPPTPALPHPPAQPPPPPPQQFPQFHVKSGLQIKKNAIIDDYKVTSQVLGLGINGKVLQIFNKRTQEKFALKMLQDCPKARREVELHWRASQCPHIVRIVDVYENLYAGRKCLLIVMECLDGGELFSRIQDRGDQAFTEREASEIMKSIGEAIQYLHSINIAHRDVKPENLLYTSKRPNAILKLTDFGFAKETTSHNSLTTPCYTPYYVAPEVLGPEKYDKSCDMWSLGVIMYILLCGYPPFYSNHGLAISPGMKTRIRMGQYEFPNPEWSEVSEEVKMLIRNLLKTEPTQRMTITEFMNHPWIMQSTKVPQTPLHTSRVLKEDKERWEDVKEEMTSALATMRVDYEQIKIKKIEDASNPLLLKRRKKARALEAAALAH

Row | Structure (SMILES) | pIC50
1 | CCOC(=O)c1cc(-c2ccnc(-c3ccc(O[Si](C)(C)C(C)(C)C)cc3)c2)nn1CCN [Example 136, ethyl 1-(2-aminoethyl)-3-[2-(4-{[tert-butyl(dimethyl)silyl]oxy}phenyl)pyridin-4-yl]-1H-pyrazole-5-carboxylate dihydrochloride] | 4.55

Same assay, conditions: read-out: MK-2 Avg. IC50

Row | Structure (SMILES) | pIC50
2 | O=C1NCCCn2nc(-c3ccnc(-c4cccc(CO)c4)c3)cc21 [Example 106, 2-{2-[3-(hydroxymethyl)phenyl]pyridin-4-yl}-5,6,7,8-tetrahydro-4H-pyrazolo[1,5-a][1,4]diazepin-4-one trifluoroacetate] | 5.34
3 | O=C1NCCn2nc(-c3ccnc(-c4ccco4)c3)cc21 [Example 65] | 5.92
4 | Cc1cn(-c2cc(-c3cc4n(n3)CCCNC4=O)ccn2)cn1 [Example 90] | 5.56
5 | O=C(O)c1cc(-c2ccnc(/C=C/c3ccccc3)c2)nn1CCCNCCc1ccc(Br)cc1 [Example 25, trifluoroacetate] | 6.50
6 | COc1ccc(-c2cc(C(=O)O)n(CCCNC(=O)OC(C)(C)C)n2)cc1 [Example 151, 1-{3-[(tert-butoxycarbonyl)amino]propyl}-3-(4-methoxyphenyl)-1H-pyrazole-5-carboxylic acid] | 3.81
7 | Cn1ccc2cc(-c3cc(-c4cc5n(n4)CCNC5=O)ccn3)ccc21 [Example 32] | 6.32
8 | COc1cccc(-c2cc(-c3cc(C(=O)O)n(CCN)n3)ccn2)c1 [Example 20, dihydrochloride] | 6.66
9 | O=C1NCCn2nc(-c3ccnc(-c4ccoc4)c3)cc21 [Example 73, hydrochloride] | 5.84
10 | CC(C)NCc1ccc(-c2cc(-c3cc4n(n3)CCNC4=O)ccn2)cc1 [Example 78] | 5.76
11 | O=C1NCCn2nc(-c3ccnc(-c4ccc(O)cc4)c3)cc21 [Example 42, trifluoroacetate] | 6.21
12 | O=C1NCCn2nc(-c3ccnc(-c4cccc(CN5CCOCC5)c4)c3)cc21 [Example 125, 2-{2-[3-(morpholin-4-ylmethyl)phenyl]pyridin-4-yl]-6,7-dihydropyrazolo[1,5-a]pyrazin-4(5H)-one] | 4.94
13 | CN(C)Cc1ccc(-c2cc(-c3cc4n(n3)CCNC4=O)ccn2)cc1 [Example 112, 2-(2-{4-[(dimethylamino)methyl]phenyl}pyridin-4-yl)-6,7-dihydropyrazolo[1,5-a]pyrazin-4(5H)-one trifluoroacetate] | 5.27
14 | O=C1NCCn2nc(-c3ccnc(-c4ccc5ccncc5c4)c3)cc21 [Example 14] | 6.71
15 | O=C1NCCCn2nc(-c3ccnc(-n4cnc(-c5ccccc5)c4)c3)cc21 [Example 105, 2-[2-(4-phenyl-1H-imidazol-1-yl)pyridin-4-yl]-5,6,7,8-tetrahydro-4H-pyrazolo[1,5-a][1,4]diazepin-4-one trifluoroacetate] | 5.37
16 | CN(C)c1cc(-c2cc3n(n2)CCNC3=O)ccn1 [Example 138, 2-[2-(dimethylamino)pyridin-4-yl]-6,7-dihydropyrazolo[1,5-a]pyrazin-4(5H)-one trifluoroacetate] | 4.43
17 | CS(=O)(=O)Nc1cccc(-c2cc(-c3cc4n(n3)CCNC4=O)ccn2)c1 [Example 85, dihydrochloride] | 5.64
18 | O=C1NCCCn2nc(-c3ccnc(-n4ccnn4)c3)cc21 [Example 121, 2-[2-(1H-1,2,3-triazol-1-yl)pyridin-4-yl]-5,6,7,8-tetrahydro-4H-pyrazolo[1,5-a][1,4]diazepin-4-one hydrochloride] | 5.04
19 | NCCCn1nc(-c2ccnc(-c3ccc(O)cc3)c2)cc1C(=O)O [Example 8] | 6.99
20 | O=C1NCCn2nc(-c3ccnc(-c4ccc5sccc5c4)c3)cc21 [Example 56, trifluoroacetate] | 6.02
21 | O=C1NCCn2nc(-c3ccnc(-c4ccc5occc5c4)c3)cc21 [Example 37, trifluoroacetate] | 6.27
22 | NCC1Cn2nc(-c3ccnc(-c4cnc5ccccc5c4)c3)cc2C(=O)N1 (stereo not drawn) [Example 3, trifluoroacetate] | 7.32
23 | O=C1NCCn2nc(-c3ccnc(-c4ccc5ncccc5c4)c3)cc21 [Example 23, dihydrochloride] | 6.53
24 | O=C1NCCn2nc(-c3ccnc(-c4ccc5c(c4)CNCC5)c3)cc21 [Example 82, trifluoroacetate] | 5.68
25 | O=Cc1c[nH]c2ccc(-c3cc(-c4cc5n(n4)CCNC5=O)ccn3)cc12 [Example 53, hydrochloride] | 6.03

More lines, now with the values ahead:

Row | pIC50 | Structure (SMILES)
26 | 3.82 | NCCCn1nc(-c2cccc(O)c2)cc1C(=O)O [Example 150, 1-(3-aminopropyl)-3-(3-hydroxyphenyl)-1H-pyrazole-5-carboxylic acid trifluoroacetate]
27 | 3.93 | O=C1NCCCn2nc(-c3ccc(O)cc3)cc21 [Example 147, 2-(4-hydroxyphenyl)-5,6,7,8-tetrahydro-4H-pyrazolo[1,5-a][1,4]diazepin-4-one]
28 | 4.41 | CCOC(=O)c1cc(-c2ccnc(-c3cnc4ccccc4c3)c2)nn1CCCN [Example 139, ethyl 1-(3-aminopropyl)-3-(2-quinolin-3-ylpyridin-4-yl)-1H-pyrazole-5-carboxylate dihydrochloride]
29 | 4.50 | CCOC(=O)c1cc(-c2ccnc(-c3cccc([N+](=O)[O-])c3)c2)nn1CCCN [Example 137, ethyl 1-(3-aminopropyl)-3-[2-(3-nitrophenyl)pyridin-4-yl]-1H-pyrazole-5-carboxylate dihydrochloride]
30 | 4.55 | O=C1NCCCn2nc(-c3ccnc(-n4cncn4)c3)cc21 [Example 135, 2-[2-(1H-1,2,4-triazol-1-yl)pyridin-4-yl]-5,6,7,8-tetrahydro-4H-pyrazolo[1,5-a][1,4]diazepin-4-one hydrochloride]
31 | 4.86 | N#Cc1cc(-c2cc3n(n2)CCNC3=O)ccn1 [Example 126, 4-(4-oxo-4,5,6,7-tetrahydropyrazolo[1,5-a]pyrazin-2-yl)pyridine-2-carbonitrile]
32 | 4.97 | O=C1NCCCn2nc(-c3ccnc(-n4cccc4)c3)cc21 [Example 123, 2-[2-(1H-pyrrol-1-yl)pyridin-4-yl]-5,6,7,8-tetrahydro-4H-pyrazolo[1,5-a][1,4]diazepin-4-one trifluoroacetate]
33 | 5.05 | O=C1NCCn2nc(-c3ccnc(-c4nc5ccccc5[nH]4)c3)cc21 [Example 120, 2-[2-(1H-benzimidazol-2-yl)pyndin-4-yl]-6,7-dihydropyrazolo[1,5-a]pyrazin-4(5H)-one]
34 | 5.24 | O=C1NCCn2nc(-c3ccnc(-c4cccc(CNCCO)c4)c3)cc21 [Example 114, 2-[2-(3-{[(2-hydroxyethyl)amino]methyl}phenyl)pyridin-4-yl]-6,7-dihydropyrazolo[1,5-a]pyrazin-4(5H)-one]
35 | 5.25 | O=C1NCCCn2nc(-c3ccnc(-n4ccnc4)c3)cc21 [Example 113, 2-[2-(1H-imidazol-1-yl)pyridin-4-yl]-5,6,7,8-tetrahydro-4H-pyrazolo[1,5-a][1,4]diazepin-4-one hydrochloride]
36 | 5.30 | CCOC(=O)c1cc(-c2ccnc(-c3cccc(O)c3)c2)nn1CCN [Example 108, ethyl 1-(2-aminoethyl)-3-[2-(3-hydroxyphenyl)pyridin-4-yl]-1H-pyrazole-5-carboxylate dihydrochloride]
37 | 5.48 | CC(=O)Nc1cccc(-c2cc(-c3cc4n(n3)CCNC4=O)ccn2)c1 [Example 99, N-{3-[4-(4-oxo-4,5,6,7-tetrahydropyrazolo[1,5-a]pyrazin-2-yl)pyridin-2-yl]phenyl}acetamide]
38 | 5.49 | O=C1NCCn2nc(-c3ccnc(-c4cccc(OCCN5CCCC5)c4)c3)cc21 [Example 98, 2-{2-[3-(2-pyrrolidin-1-ylethoxy)phenyl]pyridin-4-yl}-6,7-dihydropyrazolo[1,5-a]pyrazin-4(5H)-one]
39 | 5.49 | NCc1cccc(-c2cc(-c3cc4n(n3)CCNC4=O)ccn2)c1 [Example 97, trifluoroacetate]
40 | 5.52 | O=C1NCCn2nc(-c3ccnc(-c4ccc(CN5CCOCC5)cc4)c3)cc21 [Example 94, bis(trifluoroacetate)]
41 | 5.55 | O=C1NCCn2nc(-c3ccnc(-c4ccc[nH]4)c3)cc21 [Example 91, dihydrochloride]

Row | pIC50 | Structure (SMILES)
42 | 5.62 | CN(C)c1ncnc2ccc(-c3cc(-c4cc5n(n4)CCNC5=O)ccn3)cc12 [Example 86]
43 | 5.70 | O=C1NCCn2nc(-c3ccnc(-c4cncnc4)c3)cc21 [Example 81, hydrochloride]
44 | 5.82 | CN(C)c1ccc(-c2cc(-c3cc4n(n3)CCNC4=O)ccn2)cc1 [Example 74, hydrochloride]
45 | 5.86 | O=C1NCCCn2nc(-c3ccnc(-c4ccc(O)cc4)c3)cc21 [Example 71, hydrochloride]
46 | 5.87 | O=C1NCCn2nc(-c3ccnc(-n4ccnc4)c3)cc21 [Example 70, hydrochloride]
47 | 5.88 | NCCCn1nc(-c2ccnc(-c3cccc([N+](=O)[O-])c3)c2)cc1C(N)=O [Example 69]
48 | 5.89 | O=C1NCCn2nc(-c3ccnc(-c4nccs4)c3)cc21 [Example 67, trifluoroacetate]
49 | 5.94 | NCCCn1nc(-c2ccncc2)cc1C(=O)O [Example 63]
50 | 5.95 | O=C1NCCn2nc(-c3ccnc(-c4cccc(Cl)c4)c3)c(Cl)c21 [Example 61, 3-chloro-2-[2-(3-chlorophenyl)pyridin-4-yl]-6,7-dihydropyrazolo[1,5-a]pyrazin-4(5H)-one]
51 | 6.04 | Nc1ccc(-c2cc(-c3cc4n(n3)CCNC4=O)ccn2)cc1 [Example 52, hydrochloride]
52 | 6.12 | CN(C)CCOc1ccc(-c2cc(-c3cc4n(n3)CCNC4=O)ccn2)cc1 [Example 46, trifluoroacetate]
53 | 6.20 | O=C1NCCn2nc(-c3ccnc(-c4ccc(OCCN5CCOCC5)cc4)c3)cc21 [Example 43, dihydrochloride]
54 | 6.23 | O=C1NCCn2nc(-c3ccnc(-c4cccnc4)c3)cc21 [Example 41, dihydrochloride]
55 | 6.28 | O=C1NCCn2nc(-c3ccnc(-c4ccc5c(c4)CCO5)c3)cc21 [Example 36, trifluoroacetate]
56 | 6.33 | COc1ccc(-c2cc(-c3cc4n(n3)CCNC4=O)ccn2)cc1F [Example 30]
57 | 6.67 | O=C1NCCn2nc(-c3ccnc(-c4cnc5ccccc5c4)c3)cc21 [Example 19, dihydrochloride]
